Laboratory results reported in the NIST ThermoML archive (doi:10.1016/j.tca.2014.08.035).
± gives the expanded uncertainty stated by the source.

Assays:
[1] = Molar enthalpy of transition or fusion; details: DSC
[2] = DTA
[3] = molar enthalpy of transition or fusion; details: 640.05 K; Crystal 2; DSC
[4] = Solid-liquid equilibrium temperature; details: 10000 kPa; Crystal 2; DTA

Compound: N.NS(=O)(=O)O [ammonium sulfamate]
- Molar enthalpy of transition or fusion ([1]; Crystal): 3.99 ± 0.143 kcal/mol
- Normal melting temperature ([2]; Crystal): 132.90 ± 0.4 °C

Compound: N.N.O=S(=O)(O)O [ammonium sulfate]
- Molar enthalpy of transition or fusion ([1]; Crystal 3): 0.681 ± 0.43 kcal/mol
- molar enthalpy of transition or fusion [3]: 0.669 ± 0.191 kcal/mol
- Solid-liquid equilibrium temperature [4]: 640.05 ± 0.8 K

Compound: O=S(=O)([O-])O.[NH4+] [ammonium acid sulfate]
- Molar enthalpy of transition or fusion ([1]; Crystal): 3.51 ± 0.143 kcal/mol
- Normal melting temperature ([2]; Crystal): 144.20 ± 0.5 °C

Compound: O=S(=O)([O-])O.O=S(=O)([O-])[O-].[NH4+].[NH4+].[NH4+] [triammonium hydrogen disulfate]
- Molar enthalpy of transition or fusion ([1]; Crystal 1): 7.65 ± 1.91 kcal/mol
- Molar enthalpy of transition or fusion ([1]; Crystal 2): 0.645 ± 0.0717 kcal/mol
- Normal melting temperature ([2]; Crystal 1): 229.00 ± 4 °C
- Triple point temperature ([2]; Crystal 2): 412.85 ± 0.5 K
